# Test results reported in ChEMBL document CHEMBL4828735, “Discovery of N-((3S,4S)-4-(3,4-Difluorophenyl)piperidin-3-yl)-2-fluoro-4-(1-methyl-1H-pyrazol-5-yl)benzamide (Hu7691), a Potent and Selective Akt Inhibitor That Enables Decrease of Cutaneous Toxicity” (J Med Chem, 2021).
# Activity calls are given as the source filed them. The rule behind the calls is not given here.
# Legend:
# NCI-H1975 = assay: Antiproliferative activity against human NCI-H1975 cells assessed as inhibition of cell growth incubated for 72 hrs by SRB method; type: functional, cell-based; conditions: NCI-H1975, 72 h
# [1] = Oral bioavailability in Sprague-Dawley rat measured upto 72 hrs by LC-MS/MS analysis; type: ADME, organism-based; conditions: in vivo
# [2] = Tmax in Beagle dog at 20 mg/kg, ig measured upto 96 hrs by LC-MS/MS analysis; type: ADME, organism-based, Canis lupus familiaris; conditions: in vivo, po
# [3] = Toxicity in mouse assessed as brownish watery stool at 150 mg/kg; type: organism-based; conditions: in vivo
# [4] = Toxicity in Sprague-Dawley rat assessed as effect on thymus at 25 to 75 mg/kg administered daily for 4 weeks by histopathological analysis; type: organism-based; conditions: in vivo, 672 h, dose 25-75 mg/kg
# [5] = target: Serine/threonine-protein kinase Chk1 (Homo sapiens, UniProt O14757); assay: Inhibition of CHK1 (unknown origin)
# Homo sapiens = species on record: Homo sapiens; assay: Inhibition of PKG (unknown origin) at 0.5 uM
# [6] = Microsomal stability in dog liver microsomes assessed as intrinsic clearance at 50 uM preincubated for 5 mins with NADPH followed by compound addition and measured upto 60 mins by LC-MS/MS analysis; type: ADME, Canis lupus familiaris, Microsome; conditions: read-out: CLH
# MDA-MB-231 = assay: Antiproliferative activity against human MDA-MB-231 cells assessed as inhibition of cell growth incubated for 72 hrs by SRB method; type: functional, cell-based; conditions: MDA-MB-231, 72 h
# [7] = Tmax in Sprague-Dawley rat at 15 mg/kg, ig measured upto 72 hrs by LC-MS/MS analysis; type: ADME, organism-based; conditions: in vivo, po
# KHOS/NP = assay: Antitumor activity against human KHOS cells xenografted in dosed BALB/c nude mouse assessed as tumor growth inhibition at 25 mg/kg, ig administered once daily for 22 days; type: functional, organism-based; conditions: time 22.0 day
# [8] = Toxicity in Beagle dog assessed as maximum toxicity dose; parameters: species or system Canis lupus familiaris; conditions: in vivo
# SK-OV-3 = assay: Antiproliferative activity against human SK-OV-3 cells assessed as inhibition of cell growth incubated for 72 hrs by SRB method; type: functional, cell-based; conditions: SK-OV-3, 72 h
# HaCaT = assay: Antiproliferative activity against human HaCaT cells assessed as inhibition of cell growth incubated for 72 hrs by SRB assay; type: cell-based
# [9] = Toxicity in mouse assessed as weight loss at 150 mg/kg; type: organism-based; conditions: in vivo
# [10] = target: cGMP-dependent protein kinase 2 (Homo sapiens) (UniProt Q13237); assay: Inhibition of PRKG2 (unknown origin) at 0.5 uM
# Cytochrome P450 3A4 = Cytochrome P450 3A4 (Homo sapiens, UniProt P08684); assay: Inhibition of CYP3A4 (unknown origin); type: ADME
# [11] = Drug metabolism in po dosed Sprague-Dawley rat bile assessed as M5 metabolite formation measured upto 24 hrs by UPLC-TOF-MS/MS analysis; type: ADME, organism-based; conditions: in vivo
# [12] = target: Ribosomal protein S6 kinase beta-1 (Homo sapiens, UniProt P23443); assay: Inhibition of P70S6K (unknown origin)
# [13] = Microsomal stability in mouse liver microsomes assessed as half life at 50 uM preincubated for 5 mins with NADPH followed by compound addition and measured upto 60 mins by LC-MS/MS analysis; type: ADME, Microsome
# [14] = Half life in Beagle dog at 20 mg/kg, ig measured upto 96 hrs by LC-MS/MS analysis; type: ADME, organism-based, Canis lupus familiaris; conditions: in vivo, po
# [15] = Microsomal stability in mouse liver microsomes assessed as intrinsic clearance at 50 uM preincubated for 5 mins with NADPH followed by compound addition and measured upto 60 mins by LC-MS/MS analysis; type: ADME, Microsome; conditions: read-out: CLH
# [16] = Toxicity in Sprague-Dawley rat assessed as effect on ovaries at 25 to 75 mg/kg administered daily for 4 weeks by histopathological analysis; type: organism-based; conditions: in vivo, 672 h, dose 25-75 mg/kg
# [17] = Antiproliferative activity against human HPDE6c7 cells assessed as inhibition of cell growth incubated for 72 hrs by SRB method; type: cell-based; conditions: HPDE6c7, 72 h
# [18] = Drug metabolism in po dosed Sprague-Dawley rat blood assessed as M3 metabolite formation measured upto 6 hrs by UPLC-TOF-MS/MS analysis; type: ADME, organism-based; conditions: in vivo
# [19] = Microsomal stability in rat liver microsomes assessed as half life at 50 uM preincubated for 5 mins with NADPH followed by compound addition and measured upto 60 mins by LC-MS/MS analysis; type: ADME, Microsome
# [20] = Drug metabolism in po dosed Sprague-Dawley rat bile assessed as M2 metabolite formation measured upto 24 hrs by UPLC-TOF-MS/MS analysis; type: ADME, organism-based; conditions: in vivo
# [21] = Drug metabolism in po dosed Sprague-Dawley rat bile assessed as M1 metabolite formation measured upto 24 hrs by UPLC-TOF-MS/MS analysis; type: ADME, organism-based; conditions: in vivo
# [22] = Toxicity in Sprague-Dawley rat assessed as change in biochemical parameters at 25 to 75 mg/kg administered daily for 4 weeks; type: organism-based; conditions: in vivo, 672 h, dose 25-75 mg/kg
# [23] = Toxicity in BALB/c nude mouse xenografted with human KHOS cells assessed as change in body weight at 12.5 to 50 mg/kg, ig administered once daily for 22 days; type: organism-based; conditions: in vivo, po, 528 h, dose 12.5-50 mg/kg, time 22 day
# OVCAR-8 = assay: Antiproliferative activity against human OVCAR-8 cells assessed as inhibition of cell growth incubated for 72 hrs by SRB method; type: functional, cell-based; conditions: OVCAR-8, 72 h
# [24] = Toxicity in Sprague-Dawley rat assessed as increase in body weight at 75 mg/kg administered daily for 4 weeks; type: organism-based; conditions: in vivo, 672 h
# PC-3 = assay: Antiproliferative activity against human PC3 cells assessed as inhibition of cell growth incubated for 72 hrs by SRB method; type: functional, cell-based; conditions: PC-3, 72 h
# [25] = AUC(0 to t) in Beagle dog at 20 mg/kg, ig measured upto 96 hrs by LC-MS/MS analysis; type: ADME, organism-based, Canis lupus familiaris; parameters: route […], dose 20 mg/kg, time <=96; conditions: in vivo, po
# 786-0 = assay: Antiproliferative activity against human 786-0 cells assessed as inhibition of cell growth incubated for 72 hrs by SRB assay; type: functional, cell-based; conditions: 786-0, 72 h
# [26] = AUC(0 to t) in Sprague-Dawley rat at 2 mg/kg, iv measured upto 24 hrs by LC-MS/MS analysis; type: ADME, organism-based; parameters: route intravenous, dose 2 mg/kg, time <=24; conditions: in vivo
# [27] = Half life in Sprague-Dawley rat at 15 mg/kg, ig measured upto 72 hrs by LC-MS/MS analysis; type: ADME, organism-based; conditions: in vivo, po
# [28] = Microsomal stability in human liver microsomes assessed as half life at 50 uM preincubated for 5 mins with NADPH followed by compound addition and measured upto 60 mins by LC-MS/MS analysis; type: ADME, Microsome
# Cytochrome P450 2D6 = Cytochrome P450 2D6 (Homo sapiens, UniProt P10635); assay: Inhibition of CYP2D6 (unknown origin); type: ADME
# [29] = AUC(0 to t) in Sprague-Dawley rat at 15 mg/kg, ig measured upto 72 hrs by LC-MS/MS analysis; type: ADME, organism-based; parameters: route […], dose 15 mg/kg, time <=72; conditions: in vivo, po
# [30] = Cmax in Sprague-Dawley rat at 15 mg/kg, ig measured upto 72 hrs by LC-MS/MS analysis; type: ADME, organism-based; parameters: route […], dose 15 mg/kg, time <=72; conditions: in vivo, po
# Cytochrome P450 2C8 = Cytochrome P450 2C8 (Homo sapiens, UniProt P10632); assay: Inhibition of CYP2C8 (unknown origin); type: ADME
# [31] = target: Phosphatidylinositol 4,5-bisphosphate 3-kinase catalytic subunit alpha isoform (Homo sapiens, UniProt P42336); assay: Inhibition of PI3Kalpha (unknown origin)
# [32] = target: Tyrosine-protein kinase JAK2 (Homo sapiens, UniProt O60674); assay: Inhibition of JAK2 (unknown origin)
# Tyrosine-protein kinase JAK2, sequence (O60674 whole entry): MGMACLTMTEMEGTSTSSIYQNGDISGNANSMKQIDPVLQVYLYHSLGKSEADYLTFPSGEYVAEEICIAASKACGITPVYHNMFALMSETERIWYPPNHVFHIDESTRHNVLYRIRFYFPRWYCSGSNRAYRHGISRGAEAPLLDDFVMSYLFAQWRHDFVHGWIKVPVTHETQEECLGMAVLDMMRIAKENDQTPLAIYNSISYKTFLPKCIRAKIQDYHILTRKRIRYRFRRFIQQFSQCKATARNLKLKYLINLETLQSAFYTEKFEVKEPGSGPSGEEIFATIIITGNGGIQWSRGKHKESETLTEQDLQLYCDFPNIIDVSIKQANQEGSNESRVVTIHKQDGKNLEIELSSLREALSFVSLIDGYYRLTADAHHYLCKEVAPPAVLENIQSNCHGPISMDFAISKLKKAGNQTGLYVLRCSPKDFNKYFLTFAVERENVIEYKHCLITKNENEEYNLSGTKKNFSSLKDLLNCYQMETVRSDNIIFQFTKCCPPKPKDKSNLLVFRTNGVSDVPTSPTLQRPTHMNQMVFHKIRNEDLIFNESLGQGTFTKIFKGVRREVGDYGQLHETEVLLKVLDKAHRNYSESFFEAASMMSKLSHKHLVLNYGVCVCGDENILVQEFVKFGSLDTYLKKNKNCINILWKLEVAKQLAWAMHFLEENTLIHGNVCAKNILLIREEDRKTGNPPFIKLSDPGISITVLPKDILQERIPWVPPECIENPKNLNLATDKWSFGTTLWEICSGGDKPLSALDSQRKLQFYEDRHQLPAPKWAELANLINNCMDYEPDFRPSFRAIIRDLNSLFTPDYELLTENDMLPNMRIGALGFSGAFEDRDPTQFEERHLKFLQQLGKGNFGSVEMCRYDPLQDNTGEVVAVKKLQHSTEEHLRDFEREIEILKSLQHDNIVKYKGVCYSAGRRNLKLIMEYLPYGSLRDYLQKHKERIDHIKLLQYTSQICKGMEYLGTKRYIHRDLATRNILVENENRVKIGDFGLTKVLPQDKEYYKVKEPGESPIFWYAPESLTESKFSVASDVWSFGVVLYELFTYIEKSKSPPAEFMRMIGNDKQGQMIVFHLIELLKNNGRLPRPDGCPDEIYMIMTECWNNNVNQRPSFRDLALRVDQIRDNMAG
# Cytochrome P450 2C8, sequence (P10632 whole entry, canonical isoform): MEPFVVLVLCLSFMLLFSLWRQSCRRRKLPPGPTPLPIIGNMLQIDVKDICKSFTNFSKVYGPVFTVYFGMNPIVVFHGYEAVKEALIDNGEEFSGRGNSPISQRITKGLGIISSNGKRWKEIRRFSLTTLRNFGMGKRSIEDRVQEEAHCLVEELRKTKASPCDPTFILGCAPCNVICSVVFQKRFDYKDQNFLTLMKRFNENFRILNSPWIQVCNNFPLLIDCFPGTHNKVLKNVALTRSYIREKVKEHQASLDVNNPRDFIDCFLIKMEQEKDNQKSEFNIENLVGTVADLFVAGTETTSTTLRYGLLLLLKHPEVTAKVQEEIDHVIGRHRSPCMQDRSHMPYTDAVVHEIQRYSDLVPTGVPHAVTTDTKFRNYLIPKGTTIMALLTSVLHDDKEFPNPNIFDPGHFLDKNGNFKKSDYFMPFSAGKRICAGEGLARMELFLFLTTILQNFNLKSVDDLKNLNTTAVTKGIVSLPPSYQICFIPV
# cGMP-dependent protein kinase 2 (Homo sapiens), sequence (Q13237 whole entry): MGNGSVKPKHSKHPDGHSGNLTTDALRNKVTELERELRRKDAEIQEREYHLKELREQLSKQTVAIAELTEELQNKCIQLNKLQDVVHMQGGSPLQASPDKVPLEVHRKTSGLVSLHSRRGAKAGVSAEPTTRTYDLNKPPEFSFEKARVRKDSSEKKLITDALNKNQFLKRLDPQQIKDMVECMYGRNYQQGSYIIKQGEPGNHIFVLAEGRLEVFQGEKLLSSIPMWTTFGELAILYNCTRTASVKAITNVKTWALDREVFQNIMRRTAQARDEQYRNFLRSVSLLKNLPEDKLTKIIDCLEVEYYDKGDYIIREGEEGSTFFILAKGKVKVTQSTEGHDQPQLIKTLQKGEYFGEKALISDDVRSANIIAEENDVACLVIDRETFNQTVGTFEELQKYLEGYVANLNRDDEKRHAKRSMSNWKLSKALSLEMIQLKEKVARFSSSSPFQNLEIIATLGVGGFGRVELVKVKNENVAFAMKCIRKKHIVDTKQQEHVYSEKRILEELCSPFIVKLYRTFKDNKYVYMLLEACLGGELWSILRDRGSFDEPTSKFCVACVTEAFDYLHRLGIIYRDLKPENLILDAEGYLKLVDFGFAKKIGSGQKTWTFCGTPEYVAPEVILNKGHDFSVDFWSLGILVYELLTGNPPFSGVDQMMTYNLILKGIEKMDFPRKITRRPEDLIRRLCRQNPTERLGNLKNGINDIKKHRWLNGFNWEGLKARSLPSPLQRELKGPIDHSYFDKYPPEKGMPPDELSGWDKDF
# Cytochrome P450 2D6, sequence (P10635 whole entry): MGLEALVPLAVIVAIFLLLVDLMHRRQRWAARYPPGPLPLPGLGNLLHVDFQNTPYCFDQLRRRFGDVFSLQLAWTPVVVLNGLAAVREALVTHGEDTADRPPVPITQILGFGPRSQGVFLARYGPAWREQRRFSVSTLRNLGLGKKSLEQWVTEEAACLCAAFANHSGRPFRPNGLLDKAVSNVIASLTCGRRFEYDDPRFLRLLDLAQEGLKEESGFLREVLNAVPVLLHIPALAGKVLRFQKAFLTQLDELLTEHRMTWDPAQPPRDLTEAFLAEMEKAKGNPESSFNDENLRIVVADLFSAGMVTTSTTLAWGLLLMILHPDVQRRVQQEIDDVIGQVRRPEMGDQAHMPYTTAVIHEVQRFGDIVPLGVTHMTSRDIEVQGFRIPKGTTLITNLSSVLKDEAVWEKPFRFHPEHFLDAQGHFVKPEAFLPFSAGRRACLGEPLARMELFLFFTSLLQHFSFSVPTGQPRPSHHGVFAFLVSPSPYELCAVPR
# Cytochrome P450 3A4, sequence (P08684 whole entry): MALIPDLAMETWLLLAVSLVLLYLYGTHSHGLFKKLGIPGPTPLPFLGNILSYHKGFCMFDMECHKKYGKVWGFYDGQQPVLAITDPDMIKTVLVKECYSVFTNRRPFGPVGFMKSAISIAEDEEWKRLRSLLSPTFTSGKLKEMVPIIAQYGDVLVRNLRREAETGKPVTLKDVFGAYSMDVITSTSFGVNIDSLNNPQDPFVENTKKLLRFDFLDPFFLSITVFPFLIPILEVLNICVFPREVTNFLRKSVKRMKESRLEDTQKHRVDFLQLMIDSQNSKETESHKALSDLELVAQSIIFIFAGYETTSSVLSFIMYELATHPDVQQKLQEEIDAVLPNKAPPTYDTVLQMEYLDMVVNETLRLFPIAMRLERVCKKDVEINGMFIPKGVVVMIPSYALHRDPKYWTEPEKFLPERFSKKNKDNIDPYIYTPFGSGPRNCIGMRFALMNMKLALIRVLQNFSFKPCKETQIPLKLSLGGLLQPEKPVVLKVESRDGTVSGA
# Ribosomal protein S6 kinase beta-1, sequence (P23443 whole entry): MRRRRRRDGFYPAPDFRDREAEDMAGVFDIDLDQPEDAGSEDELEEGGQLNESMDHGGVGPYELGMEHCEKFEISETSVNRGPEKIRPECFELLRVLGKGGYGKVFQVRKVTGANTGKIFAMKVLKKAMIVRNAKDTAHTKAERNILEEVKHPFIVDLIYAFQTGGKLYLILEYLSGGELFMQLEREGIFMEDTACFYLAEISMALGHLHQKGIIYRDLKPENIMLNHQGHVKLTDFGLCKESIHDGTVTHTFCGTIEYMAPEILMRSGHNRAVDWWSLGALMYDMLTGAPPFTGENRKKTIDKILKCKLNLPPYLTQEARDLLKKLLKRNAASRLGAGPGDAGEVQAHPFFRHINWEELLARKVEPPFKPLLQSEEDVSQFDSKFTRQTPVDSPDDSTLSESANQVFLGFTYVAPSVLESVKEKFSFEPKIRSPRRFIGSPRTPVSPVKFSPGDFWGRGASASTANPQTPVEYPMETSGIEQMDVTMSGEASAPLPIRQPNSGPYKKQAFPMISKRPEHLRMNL
# Phosphatidylinositol 4,5-bisphosphate 3-kinase catalytic subunit alpha isoform, sequence (P42336 whole entry, canonical isoform): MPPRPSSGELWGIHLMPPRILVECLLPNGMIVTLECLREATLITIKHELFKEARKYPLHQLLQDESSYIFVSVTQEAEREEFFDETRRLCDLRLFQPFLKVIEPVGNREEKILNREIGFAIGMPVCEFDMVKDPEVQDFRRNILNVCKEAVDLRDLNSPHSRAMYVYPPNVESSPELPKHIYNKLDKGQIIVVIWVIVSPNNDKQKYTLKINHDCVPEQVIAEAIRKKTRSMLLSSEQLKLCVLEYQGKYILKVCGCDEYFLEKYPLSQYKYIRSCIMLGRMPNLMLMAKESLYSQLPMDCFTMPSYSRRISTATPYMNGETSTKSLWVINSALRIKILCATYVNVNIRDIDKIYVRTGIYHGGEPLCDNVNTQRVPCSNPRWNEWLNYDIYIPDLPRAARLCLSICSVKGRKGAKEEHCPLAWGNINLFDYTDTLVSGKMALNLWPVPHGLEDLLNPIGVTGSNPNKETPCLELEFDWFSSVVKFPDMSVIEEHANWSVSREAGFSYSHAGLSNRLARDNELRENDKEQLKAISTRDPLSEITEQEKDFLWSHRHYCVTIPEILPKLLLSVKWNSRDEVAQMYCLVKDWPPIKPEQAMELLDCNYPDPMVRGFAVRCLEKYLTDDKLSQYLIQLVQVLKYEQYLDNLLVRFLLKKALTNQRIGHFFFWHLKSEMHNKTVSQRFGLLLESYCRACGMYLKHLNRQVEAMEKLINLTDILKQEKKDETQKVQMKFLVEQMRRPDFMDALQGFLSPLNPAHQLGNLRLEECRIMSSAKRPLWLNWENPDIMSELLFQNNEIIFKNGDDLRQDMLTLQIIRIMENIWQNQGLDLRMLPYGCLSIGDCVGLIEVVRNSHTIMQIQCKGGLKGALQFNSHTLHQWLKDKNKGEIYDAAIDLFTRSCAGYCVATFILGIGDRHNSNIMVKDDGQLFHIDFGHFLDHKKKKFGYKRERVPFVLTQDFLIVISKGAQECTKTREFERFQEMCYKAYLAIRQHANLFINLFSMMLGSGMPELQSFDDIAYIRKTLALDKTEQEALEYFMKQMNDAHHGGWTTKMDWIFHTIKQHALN
smiles,measurement,setting,value
Cl.Cn1nccc1-c1ccc(C(=O)N[C@@H]2CNCC[C@H]2c2ccc(F)c(F)c2)c(F)c1,IC50,NCI-H1975,7.56 µM
same,bioavailability,[1],66.2%
same,Tmax,[2],8.67 h
same,Activity,[3],Toxic
same,Activity,[4],Non-Toxic
same,IC50,[5],> 10 µM
same,inhibition,Homo sapiens,Active
same,microsomal CLint at 50 µM,[6],4.1 µL/min/mg
same,IC50,MDA-MB-231,16.4 µM
same,Tmax,[7],1.67 h
same,Activity,KHOS/NP,Active
same,MTD,[8],100 mg/kg
same,IC50,SK-OV-3,4.71 µM
same,IC50,HaCaT,15.2 µM
same,Activity,[9],Toxic
same,inhibition,[10],Active
same,IC50,Cytochrome P450 3A4,> 100 µM
same,Drug metabolism,[11],Metabolite_Detected
same,IC50,[12],0.229 µM
same,half-life at 50 µM,[13],6.73 h
same,half-life,[14],16.7 h
same,microsomal CLint at 50 µM,[15],3.4 µL/min/mg
same,Activity,[16],Non-Toxic
same,IC50,[17],16.1 µM
same,Drug metabolism,[18],Metabolite_Detected
same,half-life at 50 µM,[19],1.16 h
same,Drug metabolism,[20],Metabolite_Detected
same,Drug metabolism,[21],Metabolite_Detected
same,Activity,[22],Non-Toxic
same,Activity,[23],Non-Toxic
same,IC50,OVCAR-8,3.52 µM
same,Activity,[24],Non-Toxic
same,IC50,PC-3,8.74 µM
same,AUC(0-t) at 96 h,[25],33300 ng·h/mL
same,IC50,786-0,2.5 µM
same,AUC(0-t) at 24 h,[26],459 ng·h/mL
same,half-life,[27],8.68 h
same,half-life at 50 µM,[28],16.2 h
same,IC50,Cytochrome P450 2D6,> 100 µM
same,AUC(0-t) at 72 h,[29],2280 ng·h/mL
same,Cmax,[30],171 ng/mL
same,IC50,Cytochrome P450 2C8,> 100 µM
same,IC50,[31],> 10 µM
same,IC50,[32],> 10 µM
